The results in this text go back to patent publication US7105522B2, “HIV inhibiting pyrazinone derivatives” (Janssen Pharmaceutica, N.V., priority 2001, dated 2006).

For data set [1], the system named is mock-infected MT-4 cells. In words: Cytotoxicity in mock-infected MT-4 cells (MTT). The data set is classed as cell-based. Particulars: OD 540 nm, read-out: CC50 (50% cytotoxic concentration). As for the experimental part:
(§1) A rapid, sensitive and automated assay procedure was used for the in vitro evaluation of anti-HIV agents. […] Inhibition of the HIV-induced cytopathic effect was used as the end point. The viability of both HIV- and mock-infected cells was assessed spectrophotometrically via the in situ reduction of 3-(4,5-dimethylthiazol-2-yl)-2,5-diphenyltetrazolium bromide (MTT). […] The percent protection achieved by the compound in HIV-infected cells was calculated by the following formula:
(§2) [formula] whereby (ODT)HIV is the optical density measured with a given concentration of the test compound in HIV-infected cells; (ODC)HIV is the optical density measured for the control untreated HIV-infected cells; (ODC)MOCK is the optical density measured for the control untreated mock-infected cells; all optical density values were determined at 540 nm. […] The ratio of CC50 to IC50 was defined as the selectivity index (SI).

Data set [2] deals with HIV-1. In words: microbe, parasite or virus in culture. The data set is classed as cell-based. Particulars: for IC50: HIV-infected MT-4 cells, MTT, OD 540 nm, read-out: IC50 (50% inhibitory concentration, dose achieving 50% protection); for SI (selectivity index, ratio of CC50 to IC50): MT-4 cells. How it is done:
A rapid, sensitive and automated assay procedure was used for the in vitro evaluation of anti-HIV agents. An […] T4-cell line, MT-4, which was previously shown (Koyanagi et al., Int. J. Cancer, 36, 445–451, 1985) to be highly susceptible to and permissive for HIV infection, served as the target cell line. Inhibition of the HIV-induced cytopathic effect was used as the end point. The viability of both HIV- and mock-infected cells was assessed spectrophotometrically via the in situ reduction of 3-(4,5-dimethylthiazol-2-yl)-2,5-diphenyltetrazolium bromide (MTT). The 50% cytotoxic concentration (CC50 in μM) was defined as the concentration of compound that reduced the absorbance of the mock-infected control sample by 50%. The percent protection achieved by the compound in HIV-infected cells was calculated by the following formula:
[formula] whereby (ODT)HIV is the optical density measured with a given concentration of the test compound in HIV-infected cells; (ODC)HIV is the optical density measured for the control untreated HIV-infected cells; (ODC)MOCK is the optical density measured for the control untreated mock-infected cells; all optical density values were determined at 540 nm. The dose achieving 50% protection according to the above formula was defined as the 50% inhibitory concentration (IC50 in μM). The ratio of CC50 to IC50 was defined as the selectivity index (SI).

The nature of data set [3]: Cytotoxicity in mock-infected MT-4 cells (MTT). The data set is classed as cell-based. Particulars: human, OD 540 nm, read-out: CC50 (50% cytotoxic concentration). As for the experimental part: as §1, §2
The mark [4] stands for this setting: Human immunodeficiency virus 1, MT4.

Read-outs that look alike come from different tables or passages of the source.

The melting point is the temperature, or range, at which the solid turns liquid.

On to `Cc1cc(C)c(Sc2cn(C)c(=O)c(Nc3ccc(C#N)cc3)n2)c(C)c1` [Compound 13, 4-[[3,4-dihydro-4-methyl-3-oxo-6-[(2,4,6-trimethylphenyl)thio]pyrazinyl]amino]-benzonitrile], for which, in data set [1], the CC50 stood at 99.7 µM. Also, the IC50 in data set [2] turned out to be 0.0158 µM.
As to `Cc1ccccc1Oc1nc(Nc2ccc(Cl)cc2)c(=O)n(C)c1C` [Compound 6, 3-[(4-chlorophenyl)amino]-1,6-dimethyl-5-(2-methylphenoxy)-2(1H)-pyrazinone], the CC50 in data set [3] is 100 µM. Further, the IC50 in data set [2] (setting [4]) came out at 0.1 µM. The “SI (selectivity index, ratio of CC50 to IC50)” value in data set [2] stood at 1000.
Consider `Cc1ccccc1Oc1cn(C)c(=O)c(Nc2ccc(C#N)cc2)n1` [Compound 2, 4-[[3,4-dihydro-4-methyl-6-(2-methylphenoxy)-3-oxopyrazinyl]amino]-benzonitrile], for which the CC50 in data set [1] came to 100 µM. Moreover, the IC50 in data set [2] came out at 0.004 µM.
Consider `Cc1ccc(Oc2nc(Nc3ccc(Cl)cc3)c(=O)n(C)c2C)c(C)c1` [Compound 23, 3-[(4-chlorophenyl)amino]-5-(2,4-dimethylphenoxy)-1,6-dimethyl-2(1H)-pyrazinone], for which the CC50 in data set [3] was 99.9 µM. Moreover, the IC50 in data set [2] (setting [4]) worked out at 0.0501 µM. Moreover, the “SI (selectivity index, ratio of CC50 to IC50)” value in data set [2] is reported as 1995.
Regarding `Cc1ccccc1Sc1cn(C)c(=O)c(Nc2ccc(C#N)cc2)n1` [Compound 4, 4-[[3,4-dihydro-4-methyl-6-[(2-methylphenyl)thio]-3-oxopyrazinyl]amino]-benzonitrile], the CC50 in data set [3] came out at 100 µM. Also, in data set [2] (setting [4]), the IC50 was 0.02 µM. The “SI (selectivity index, ratio of CC50 to IC50)” value in data set [2] was 5012.
The corresponding values for `Cc1cc(C)c(Sc2cn(C)c(=O)c(Nc3ccc(Cl)cc3)n2)c(C)c1` [Compound 14, 3-[(4-chlorophenyl)amino]-1-methyl-5-[(2,4,6-trimethylphenyl)thio]-2(1H)-pyrazinone] are 99.9 µM, 0.0794 µM and 1259.
The corresponding values for `Cc1ccccc1Sc1nc(Nc2ccc(C#N)cc2)c(=O)n(C)c1C` [Compound 24, 4-[[3,4-dihydro-4,5-dimethyl-6-[(2-methylphenyl)thio]-3-oxopyrazinyl]amino]-benzonitrile] are 99.9 µM, 0.0251 µM and 3981.
With `Cc1ccccc1Sc1nc(Nc2ccc(C#N)cc2)c(=O)[nH]c1C` [Compound 28, 4-[[3,4-dihydro-5-methyl-6-[(2-methylphenyl)thio]-3-oxopyrazinyl]amino]-benzonitrile], the melting point lay within 290 to 291 °C.
For `Cc1ccc(Oc2nc(Nc3ccc(C#N)cc3)c(=O)n(C)c2C)c(C)c1` [Compound 20, 4-[[6-(2,4-dimethylphenoxy)-3,4-dihydro-4,5-dimethyl-3-oxopyrazinyl]amino]-benzonitrile], the CC50 in data set [3] came out at 99.5 µM. For the same compound, the IC50 in data set [2] (setting [4]) was 0.0025 µM. Also, the “SI (selectivity index, ratio of CC50 to IC50)” value in data set [2] came to 39811.
The corresponding values for `Cc1cc(C)c([S+]([O-])c2nc(Nc3ccc(C#N)cc3)c(=O)n(C)c2C)c(C)c1` (stereo not shown) [Compound 18] are 100 µM, 0.004 µM and 25119.
Turning to `Cc1ccc(Sc2cn(C)c(=O)c(Nc3ccc(C#N)cc3)n2)c(C)c1` [Compound 21, 4-[[6-[(2,4-dimethylphenyl)thio]-3,4-dihydro-4-methyl-3-oxopyrazinyl]amino]-benzonitrile], in data set [1], the CC50 stood at 99.8 µM. For the same compound, the IC50 in data set [2] is 0.005 µM.
Take `Cc1cc(C)c(S(=O)(=O)c2cn(C)c(=O)c(Nc3ccc(C#N)cc3)n2)c(C)c1` [Compound 15, 4-[[3,4-dihydro-4-methyl-3-oxo-6-[(2,4,6-trimethylphenyl)sulfonyl]pyrazinyl]amino]-benzonitrile]: the CC50 in data set [1] amounted to 99.4 µM. Further, the IC50 in data set [2] was 0.0079 µM.
Consider `Cc1ccc(Oc2cn(C)c(=O)c(Nc3ccc(C#N)cc3)n2)c(C)c1` [Compound 3, 4-[[6-(2,4-dimethylphenoxy)-3,4-dihydro-4-methyl-3-oxopyrazinyl]amino]-benzonitrile], for which, in data set [1], the CC50 amounted to 95.1 µM. For the same compound, the IC50 in data set [2] worked out at 0.0006 µM.
Take `Cc1cc(C)c(S(=O)(=O)c2nc(Nc3ccc(C#N)cc3)c(=O)n(C)c2C)c(C)c1` [Compound 17, 4-[[3,4-dihydro-4,5-dimethyl-3-oxo-6-[(2,4,6-trimethylphenyl)sulfonyl]pyrazinyl]amino]-benzonitrile]: the CC50 in data set [3] stood at 99.8 µM. Besides, in data set [2] (setting [4]), the IC50 was 0.005 µM. For the same compound, in data set [2], the “SI (selectivity index, ratio of CC50 to IC50)” value is given as 19953.
The corresponding values for `Cc1cc(C#N)cc(C)c1Oc1nc(Nc2ccc(C#N)cc2)c(=O)n(C)c1C` [Compound 1, 4-[[6-[(4-cyanophenyl)amino]-4,5-dihydro-3,4-dimethyl-5-oxopyrazinyl]oxy]-3,5-dimethyl-benzonitrile] are 99.8 µM, 0.0063 µM and 15849.
Regarding `Cc1ccc(S(=O)(=O)c2nc(Nc3ccc(C#N)cc3)c(=O)n(C)c2C)c(C)c1` [Compound 16, 4-[[6-[(2,4-dimethylphenyl)sulfonyl]-3,4-dihydro-4,5-dimethyl-3-oxopyrazinyl]amino]-benzonitrile], the CC50 in data set [3] stood at 99.9 µM. In addition, the IC50 in data set [2] (setting [4]) came out at 0.0316 µM. The “SI (selectivity index, ratio of CC50 to IC50)” value in data set [2] turned out to be 3162.
For `Cc1ccc(Oc2cn(C)c(=O)c(Nc3ccc(Cl)cc3)n2)c(C)c1` [Compound 22, 3-[(4-chlorophenyl)amino]-5-(2,4-dimethylphenoxy)-1-methyl-2(1H)-pyrazinone], the CC50 in data set [3] worked out at 100 µM. Besides, in data set [2] (setting [4]), the IC50 came out at 0.02 µM. Further, the “SI (selectivity index, ratio of CC50 to IC50)” value in data set [2] turned out to be 5012.
For `Cc1ccc(Sc2nc(Nc3ccc(Cl)cc3)c(=O)n(C)c2C)c(C)c1` [Compound 8, 3-[(4-chlorophenyl)amino]-5-[(2,4-dimethylphenyl)thio]-1,6-dimethyl-2(1H)-pyrazinone] the same measures were 100 µM, 0.501 µM and 200.
For `Cc1ccccc1Oc1nc(Nc2ccc(C#N)cc2)c(=O)n(C)c1C` [Compound 19, 4-[[3,4-dihydro-4,5-dimethyl-6-(2-methylphenoxy)-3-oxopyrazinyl]amino]-benzonitrile] the same measures were 99.8 µM, 0.005 µM and 19953.
`Cc1ccc(Oc2cn(Cc3ccccc3)c(=O)c(Nc3ccc(C#N)cc3)n2)c(C)c1` [Compound 9, 4-[[6-(2,4-dimethylphenoxy)-3,4-dihydro-3-oxo-4-(phenylmethyl)pyrazinyl]amino]-benzonitrile] showed a melting point of 175 °C. Also, the CC50 in data set [3] amounted to 99.9 µM. The IC50 in data set [2] (setting [4]) was determined as 0.0316 µM. The “SI (selectivity index, ratio of CC50 to IC50)” value in data set [2] was 3162.
Regarding `Cc1ccc(Oc2cn(C)c(=O)c(Nc3ccccc3)n2)c(C)c1` [Compound 7, 5-(2,4-dimethylphenoxy)-1-methyl-3-(phenylamino)-2(1H)-pyrazinone], the CC50 in data set [3] turned out to be 99.9 µM. In data set [2] (setting [4]), the IC50 is 0.2 µM. The “SI (selectivity index, ratio of CC50 to IC50)” value in data set [2] came to 501.
`Cc1ccccc1Sc1nc(Nc2ccc(C#N)cc2)c(=O)n(Cc2ccccc2)c1C` [Compound 27, 4-[[6-[(2-methylphenyl)thio]-5-methyl-3,4-dihydro-3-oxo-4-(phenylmethyl)pyrazinyl]amino]-benzonitrile]: the melting point worked out at 195 °C.
As to `Cc1ccc(Oc2cn(C)c(=O)c(Nc3ccc(C(F)(F)F)cc3)n2)c(C)c1` [Compound 11, 5-(2,4-dimethylphenoxy)-1-methyl-3-[[4-(trifluoromethyl)phenyl]amino]-2(1H)-pyrazinone], the CC50 in data set [3] amounted to 100 µM. Further, the IC50 in data set [2] (setting [4]) was 0.501 µM. Also, in data set [2], the “SI (selectivity index, ratio of CC50 to IC50)” value is given as 200.
